Assay [1] deals with T1, Recombinant STAT3 protein (STAT3(G127-I722)) (Homo sapiens, UniProt P40763).
T1 construct: STAT3(G127-I722)
Description: STAT3 Fluorescence Polarization (FP) Assay. As to conditions: STAT3(G127-I722) 25 nM, probe 5-FAM-GpYLPQTV-NH2 2 nM, 45-minute incubation. The format is binding. The method, boiled down: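 Serially diluted compounds (1% DMSO) were mixed with 2 nM fluorescent phosphotyrosine peptide and 25 nM STAT3 construct G127-I722, pH 7.4, incubated 45 min at room temperature. IC50 values from fitted polarization curves are reported as categories A (≤100 nM), B, C, D (>10 μM).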

In assay [2] the target is T2, Recombinant STAT6 protein (STAT6(W123-T658)) (Homo sapiens, UniProt P42226).
T2 construct: STAT6(W123-T658)
T2 sequence (P42226 123-658): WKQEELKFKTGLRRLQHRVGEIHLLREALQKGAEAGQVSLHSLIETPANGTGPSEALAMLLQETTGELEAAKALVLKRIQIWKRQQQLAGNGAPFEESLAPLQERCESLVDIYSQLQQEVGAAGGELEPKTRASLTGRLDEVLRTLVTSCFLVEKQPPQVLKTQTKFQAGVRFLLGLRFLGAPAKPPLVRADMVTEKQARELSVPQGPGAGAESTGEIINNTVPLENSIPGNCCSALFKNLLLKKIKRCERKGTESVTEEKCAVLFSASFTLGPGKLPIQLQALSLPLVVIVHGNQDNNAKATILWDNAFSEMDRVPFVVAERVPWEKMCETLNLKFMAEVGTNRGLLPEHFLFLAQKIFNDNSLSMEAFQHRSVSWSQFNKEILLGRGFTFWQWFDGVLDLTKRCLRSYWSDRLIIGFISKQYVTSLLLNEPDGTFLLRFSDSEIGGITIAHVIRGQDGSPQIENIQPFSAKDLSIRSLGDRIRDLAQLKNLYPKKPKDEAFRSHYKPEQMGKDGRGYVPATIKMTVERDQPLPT
Briefly: STAT6 Fluorescence Polarization (FP) Assay. The class given is binding. As to conditions: STAT6(W123-T658) 250 nM, probe 5-FAM-ApYKPFQDLI-NH2 2 nM, 45-minute incubation. Put shortly: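 Competitive displacement of a fluorescent phosphotyrosine peptide (2 nM) from recombinant STAT6 W123-T658 (250 nM), 45 min at room temperature in 10 mM HEPES pH 7.4, 50 mM NaCl, 2 mM DTT. mP fitted against log compound for IC50, grouped A (≤300 nM) to D (>30 μM).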

Where only a bound is given, the exact number is not on record here.

T1 sequence (P40763 127-722, species assumed): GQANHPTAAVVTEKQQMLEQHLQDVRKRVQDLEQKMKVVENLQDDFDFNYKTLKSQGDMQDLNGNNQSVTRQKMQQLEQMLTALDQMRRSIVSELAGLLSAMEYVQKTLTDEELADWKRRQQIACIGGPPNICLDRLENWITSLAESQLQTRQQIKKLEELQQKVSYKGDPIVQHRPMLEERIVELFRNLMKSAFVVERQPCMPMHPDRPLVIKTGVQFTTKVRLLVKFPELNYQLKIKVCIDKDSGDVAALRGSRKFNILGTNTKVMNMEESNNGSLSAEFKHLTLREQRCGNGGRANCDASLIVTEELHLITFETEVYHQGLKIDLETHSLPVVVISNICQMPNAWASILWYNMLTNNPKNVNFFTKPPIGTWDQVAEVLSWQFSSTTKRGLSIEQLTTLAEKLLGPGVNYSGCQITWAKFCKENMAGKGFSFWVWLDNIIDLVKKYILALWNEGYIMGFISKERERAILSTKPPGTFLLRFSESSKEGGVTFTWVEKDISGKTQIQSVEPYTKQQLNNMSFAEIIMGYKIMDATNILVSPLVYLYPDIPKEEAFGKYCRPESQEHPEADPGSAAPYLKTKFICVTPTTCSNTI

With `COc1ccncc1C1CN(C(=O)[C@@H]2CC[C@@H]3C[C@H]4C[C@H]4C[C@H](NC(=O)c4cc5cc(C(F)P(=O)(O)O)ccc5s4)C(=O)N32)C1` (stereo partly drawn) [Example 272, (fluoro(2-(((3S,6S,7aS,8aR,9aR)-3-(3-(4-methoxypyridin-3-yl)azetidine-1-carbonyl)-5-oxodecahydro-1H-cyclopropa[d]pyrrolo[1,2-a]azocin-6-yl)carbamoyl)benzo[b]thiophen-5-yl)methyl)phosphonic acid], the IC50 was less than 100 nM in assay [1] and 3 to 30 µM in assay [2].
For the compound `CC(=O)N1C[C@H](NC(=O)[C@@H]2CC[C@@H]3C[C@]4(C)C[C@@H]4C[C@H](NC(=O)c4cc5cc(CP(=O)(O)O)ccc5s4)C(=O)N32)[C@@H](F)C1` [Example 273, ((2-(((3S,6S,7aR,8aS,9aR)-3-(((3S,4S)-1-acetyl-4-fluoropyrrolidin-3-yl)carbamoyl)-8a-methyl-5-oxodecahydro-1H-cyclopropa[d]pyrrolo[1,2-a]azocin-6-yl)carbamoyl)benzo[b]thiophen-5-yl)methyl)phosphonic acid], the IC50 in assay [1] was in the range of 1000 to 10000 nM; in assay [2], 3 to 30 µM.
On the same counts, the results for `O=C(N[C@H]1C[C@@H]2C[C@@H]2C[C@H]2CC[C@@H](C(=O)N3CC4C3CCN4c3cccnc3)N2C1=O)c1cc2cc(C(F)(F)P(=O)(O)O)ccc2s1` (stereo partly drawn) [Example 274, (difluoro(2-(((3S,6S,7aS,8aR,9aR)-5-oxo-3-(2-(pyridin-3-yl)-2,6-diazabicyclo[3.2.0]heptane-6-carbonyl)decahydro-1H-cyclopropa[d]pyrrolo[1,2-a]azocin-6-yl)carbamoyl)benzo[b]thiophen-5-yl)methyl)phosphonic acid] are less than 100 nM and 0.3 to 3 µM.
Turning to `O=C(N[C@H]1C[C@@H]2C[C@@H]2C[C@H]2CC[C@@H](C(=O)N3CC4C3CCN4c3cccnc3)N2C1=O)c1cc2cc(CP(=O)(O)O)ccc2s1` (stereo partly drawn) [Example 275, ((2-(((3S,6S,7aS,8aR,9aR)-5-oxo-3-(2-(pyridin-3-yl)-2,6-diazabicyclo[3.2.0]heptane-6-carbonyl)decahydro-1H-cyclopropa[d]pyrrolo[1,2-a]azocin-6-yl)carbamoyl)benzo[b]thiophen-5-yl)methyl)phosphonic acid], the IC50 is 100 to 1000 nM in assay [1] and 3 to 30 µM in assay [2].
`O=C(N[C@H]1C[C@@H]2C[C@@H]2C[C@H]2CC[C@@H](C(=O)N[C@H]3CNC[C@@H]3F)N2C1=O)c1cc2cc(CP(=O)(O)O)ccc2s1` [Example 276, ((2-(((3S,6S,7aS,8aR,9aR)-3-(((3S,4S)-4-fluoropyrrolidin-3-yl)carbamoyl)-5-oxodecahydro-1H-cyclopropa[d]pyrrolo[1,2-a]azocin-6-yl)carbamoyl)benzo[b]thiophen-5-yl)methyl)phosphonic acid]: the figures for the half-maximal inhibitory concentration (IC50) in assay [1] and in assay [2] were 1000 to 10000 nM and more than 30 µM, respectively.
Take `Cc1ccncc1C1CN(C(=O)[C@@H]2CC[C@@H]3C[C@H]4C[C@H]4C[C@H](NC(=O)c4cc5cc(CP(=O)(O)O)ccc5s4)C(=O)N32)C1` [Example 277, ((2-(((3S,6S,7aS,8aR,9aR)-3-(3-(4-methylpyridin-3-yl)azetidine-1-carbonyl)-5-oxodecahydro-1H-cyclopropa[d]pyrrolo[1,2-a]azocin-6-yl)carbamoyl)benzo[b]thiophen-5-yl)methyl)phosphonic acid]: the IC50 in assay [1] is 100 to 1000 nM; in assay [2] it was more than 30 µM.
For the compound `Cc1ccncc1N1C[C@H](NC(=O)[C@@H]2CC[C@@H]3C[C@H]4C[C@H]4C[C@H](NC(=O)c4cc5cc(CP(=O)(O)O)ccc5s4)C(=O)N32)[C@@H](F)C1` [Example 278, ((2-(((3S,6S,7aS,8aR,9aR)-3-(((3S,4S)-4-fluoro-1-(4-methylpyridin-3-yl)pyrrolidin-3-yl)carbamoyl)-5-oxodecahydro-1H-cyclopropa[d]pyrrolo[1,2-a]azocin-6-yl)carbamoyl)benzo[b]thiophen-5-yl)methyl)phosphonic acid], the IC50 in assay [1] is 100 to 1000 nM; in assay [2] it was more than 30 µM.
With `O=C(N[C@H]1C[C@@H]2C[C@@H]2C[C@H]2CC[C@@H](C(=O)N[C@H]3CN(c4cncnc4)C[C@@H]3F)N2C1=O)c1cc2cc(CP(=O)(O)O)ccc2s1` [Example 279, ((2-(((3S,6S,7aS,8aR,9aR)-3-(((3S,4S)-4-fluoro-1-(pyrimidin-5-yl)pyrrolidin-3-yl)carbamoyl)-5-oxodecahydro-1H-cyclopropa[d]pyrrolo[1,2-a]azocin-6-yl)carbamoyl)benzo[b]thiophen-5-yl)methyl)phosphonic acid], the IC50 in assay [1] is more than 10000 nM; in assay [2], more than 30 µM.
As for `Cc1ccncc1C1CN(C(=O)[C@@H]2CC[C@@H]3C[C@H]4C[C@H]4C[C@H](NC(=O)c4cc5cc(C(F)P(=O)(O)O)ccc5s4)C(=O)N32)C1` (stereo partly drawn) [Example 280, (fluoro(2-(((3S,6S,7aS,8aR,9aR)-3-(3-(4-methylpyridin-3-yl)azetidine-1-carbonyl)-5-oxodecahydro-1H-cyclopropa[d]pyrrolo[1,2-a]azocin-6-yl)carbamoyl)benzo[b]thiophen-5-yl)methyl)phosphonic acid], the concentration for half-maximal inhibition (IC50) in assay [1] was less than 100 nM; in assay [2], 3 to 30 µM.
Regarding `Cn1cc(C2CN(C(=O)[C@@H]3CC[C@@H]4C[C@H]5C[C@H]5C[C@H](NC(=O)c5cc6cc(C(F)(F)P(=O)(O)O)ccc6s5)C(=O)N43)C2)cn1` [Example 282, (difluoro(2-(((3S,6S,7aS,8aR,9aR)-3-(3-(1-methyl-1H-pyrazol-4-yl)azetidine-1-carbonyl)-5-oxodecahydro-1H-cyclopropa[d]pyrrolo[1,2-a]azocin-6-yl)carbamoyl)benzo[b]thiophen-5-yl)methyl)phosphonic acid], the concentration for half-maximal inhibition (IC50) in assay [1] was less than 100 nM; in assay [2] it was 3 to 30 µM.
For the compound `O=C(N[C@H]1C[C@@H]2C[C@@H]2C[C@H]2CC[C@@H](C(=O)N3CC(c4nccs4)C3)N2C1=O)c1cc2cc(C(F)(F)P(=O)(O)O)ccc2s1` [Example 286, (difluoro(2-(((3S,6S,7aS,8aR,9aR)-5-oxo-3-(3-(thiazol-2-yl)azetidine-1-carbonyl)decahydro-1H-cyclopropa[d]pyrrolo[1,2-a]azocin-6-yl)carbamoyl)benzo[b]thiophen-5-yl)methyl)phosphonic acid], the IC50 in assay [1] is less than 100 nM; in assay [2] it was 3 to 30 µM.
Regarding `O=C(N[C@H]1C[C@@H]2C[C@@H]2C[C@H]2CC[C@@H](C(=O)N3CC(c4cn[nH]c4)C3)N2C1=O)c1cc2cc(C(F)(F)P(=O)(O)O)ccc2s1` [Example 288, ((2-(((3S,6S,7aS,8aR,9aR)-3-(3-(1H-pyrazol-4-yl)azetidine-1-carbonyl)-5-oxodecahydro-1H-cyclopropa[d]pyrrolo[1,2-a]azocin-6-yl)carbamoyl)benzo[b]thiophen-5-yl)difluoromethyl)phosphonic acid], the IC50 in assay [1] was less than 100 nM; in assay [2], 3 to 30 µM.
On to `CC(=O)N1CC[C@@H]2[C@H]1CN2C(=O)[C@@H]1CC[C@@H]2C[C@H]3C[C@H]3C[C@H](NC(=O)c3cc4cc(C(F)P(=O)(O)O)ccc4s3)C(=O)N21` (stereo partly drawn) [Example 290, ((2-(((3S,6S,7aS,8aR,9aR)-3-((1R,5R)-2-acetyl-2,6-diazabicyclo[3.2.0]heptane-6-carbonyl)-5-oxodecahydro-1H-cyclopropa[d]pyrrolo[1,2-a]azocin-6-yl)carbamoyl)benzo[b]thiophen-5-yl)fluoromethyl)phosphonic acid], for which the figures for the IC50 in assay [1] and in assay [2] were 100 to 1000 nM and 3 to 30 µM, respectively.
As for `O=C(N[C@H]1C[C@H]2C[C@H]2C[C@H]2CC[C@@H](C(=O)N3CC(c4cnccc4O)C3)N2C1=O)c1cc2cc(C(F)P(=O)(O)O)ccc2s1` (stereo partly drawn) [Example 293, (fluoro(2-(((3S,6S,7aR,8aS,9aR)-3-(3-(4-hydroxypyridin-3-yl)azetidine-1-carbonyl)-5-oxodecahydro-1H-cyclopropa[d]pyrrolo[1,2-a]azocin-6-yl)carbamoyl)benzo[b]thiophen-5-yl)methyl)phosphonic acid], the IC50 in assay [1] is less than 100 nM; in assay [2] it was 0.3 to 3 µM.
Regarding `O=C(N[C@H]1C[C@H]2C[C@H]2C[C@H]2CC[C@@H](C(=O)N3CC(c4cnccc4O)C3)N2C1=O)c1cc2cc(CP(=O)(O)O)ccc2s1` [Example 294, ((2-(((3S,6S,7aR,8aS,9aR)-3-(3-(4-hydroxypyridin-3-yl)azetidine-1-carbonyl)-5-oxodecahydro-1H-cyclopropa[d]pyrrolo[1,2-a]azocin-6-yl)carbamoyl)benzo[b]thiophen-5-yl)methyl)phosphonic acid], the IC50 in assay [1] is less than 100 nM; in assay [2], 3 to 30 µM.
